Measured values from ChEMBL document CHEMBL5291721, “A preclinical secondary pharmacology resource illuminates target-adverse drug reaction associations of marketed drugs” (Nat Commun, 2023).

Experiments:
Thromboxane A2 receptor = molecular target: T1, Thromboxane A2 receptor (Homo sapiens, UniProt P21731)
T1 sequence (P21731 whole entry): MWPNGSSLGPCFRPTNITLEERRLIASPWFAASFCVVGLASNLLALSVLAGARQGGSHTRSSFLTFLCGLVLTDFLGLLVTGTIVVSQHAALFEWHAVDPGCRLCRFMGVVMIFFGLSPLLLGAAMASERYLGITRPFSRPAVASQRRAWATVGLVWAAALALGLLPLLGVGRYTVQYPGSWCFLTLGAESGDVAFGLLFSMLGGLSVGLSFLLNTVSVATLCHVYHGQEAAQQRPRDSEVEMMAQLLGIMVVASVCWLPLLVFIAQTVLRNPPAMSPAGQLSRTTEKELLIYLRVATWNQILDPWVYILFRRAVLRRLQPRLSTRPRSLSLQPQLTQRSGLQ

Adenosine receptor A3 = molecular target: T2, Adenosine receptor A3 (Homo sapiens, UniProt P0DMS8)
T2 sequence (P0DMS8 whole entry): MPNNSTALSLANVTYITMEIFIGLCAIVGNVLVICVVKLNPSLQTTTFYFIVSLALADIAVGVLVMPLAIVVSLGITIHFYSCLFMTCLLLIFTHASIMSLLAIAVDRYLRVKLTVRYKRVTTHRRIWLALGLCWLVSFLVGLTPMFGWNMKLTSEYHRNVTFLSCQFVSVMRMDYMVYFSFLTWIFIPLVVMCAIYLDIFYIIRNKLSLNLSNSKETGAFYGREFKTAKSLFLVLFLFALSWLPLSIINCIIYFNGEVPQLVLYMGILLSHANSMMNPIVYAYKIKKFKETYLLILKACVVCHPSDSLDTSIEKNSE

Adenosine receptor A1 = molecular target: T3, Adenosine receptor A1 (Homo sapiens, UniProt P30542)
T3 sequence (P30542 whole entry): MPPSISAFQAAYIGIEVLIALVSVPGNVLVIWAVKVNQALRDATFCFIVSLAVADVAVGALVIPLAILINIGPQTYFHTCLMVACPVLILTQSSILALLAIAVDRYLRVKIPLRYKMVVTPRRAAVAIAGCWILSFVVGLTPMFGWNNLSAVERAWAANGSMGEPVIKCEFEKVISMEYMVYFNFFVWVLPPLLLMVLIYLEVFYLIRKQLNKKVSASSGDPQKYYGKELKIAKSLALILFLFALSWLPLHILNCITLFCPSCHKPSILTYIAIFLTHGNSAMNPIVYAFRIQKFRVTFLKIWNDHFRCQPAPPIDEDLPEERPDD

[1] = molecular target: T4, Cholecystokinin receptor type A (Homo sapiens, UniProt P32238)
T4 sequence (P32238 whole entry): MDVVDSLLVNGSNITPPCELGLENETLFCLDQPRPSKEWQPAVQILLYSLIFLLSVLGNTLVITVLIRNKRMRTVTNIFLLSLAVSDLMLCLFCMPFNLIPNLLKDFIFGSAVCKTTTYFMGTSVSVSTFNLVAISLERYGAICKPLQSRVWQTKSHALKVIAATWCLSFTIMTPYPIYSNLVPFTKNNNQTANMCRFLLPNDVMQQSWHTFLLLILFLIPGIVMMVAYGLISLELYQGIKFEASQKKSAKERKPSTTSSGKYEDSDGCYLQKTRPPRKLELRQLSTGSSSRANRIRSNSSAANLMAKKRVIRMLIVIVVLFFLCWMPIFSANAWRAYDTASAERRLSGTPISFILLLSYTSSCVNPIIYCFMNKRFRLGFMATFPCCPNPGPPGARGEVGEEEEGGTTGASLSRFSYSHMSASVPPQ

D(3) dopamine receptor = D(3) dopamine receptor (Homo sapiens, UniProt P35462)
[2] = molecular target: Growth hormone secretagogue receptor type 1 (Homo sapiens, UniProt Q92847)
Histamine H2 receptor = Histamine H2 receptor (Homo sapiens, UniProt P25021); format: functional, cell-based
Vasopressin V2 receptor = Vasopressin V2 receptor (Homo sapiens, UniProt P30518)
[3] = molecular target: T5, Alpha-2A adrenergic receptor (Homo sapiens, UniProt P08913); format: functional, cell-based
T5 sequence (P08913 whole entry): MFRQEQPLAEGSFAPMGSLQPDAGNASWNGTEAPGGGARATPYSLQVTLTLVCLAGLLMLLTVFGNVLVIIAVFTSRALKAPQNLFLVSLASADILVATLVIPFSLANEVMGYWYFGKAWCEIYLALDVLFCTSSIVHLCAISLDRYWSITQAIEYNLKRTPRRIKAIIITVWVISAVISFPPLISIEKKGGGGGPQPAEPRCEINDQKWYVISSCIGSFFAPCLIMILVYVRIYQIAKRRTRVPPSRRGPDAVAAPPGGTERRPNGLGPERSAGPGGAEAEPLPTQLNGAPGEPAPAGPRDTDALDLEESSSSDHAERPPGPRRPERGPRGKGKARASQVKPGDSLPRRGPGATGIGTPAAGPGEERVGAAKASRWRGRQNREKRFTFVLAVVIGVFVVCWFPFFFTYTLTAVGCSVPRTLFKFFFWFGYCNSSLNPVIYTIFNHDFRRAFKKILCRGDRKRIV

[4] = molecular target: T6, Equilibrative nucleoside transporter 1 (Homo sapiens, UniProt Q99808)
T6 sequence (Q99808 whole entry): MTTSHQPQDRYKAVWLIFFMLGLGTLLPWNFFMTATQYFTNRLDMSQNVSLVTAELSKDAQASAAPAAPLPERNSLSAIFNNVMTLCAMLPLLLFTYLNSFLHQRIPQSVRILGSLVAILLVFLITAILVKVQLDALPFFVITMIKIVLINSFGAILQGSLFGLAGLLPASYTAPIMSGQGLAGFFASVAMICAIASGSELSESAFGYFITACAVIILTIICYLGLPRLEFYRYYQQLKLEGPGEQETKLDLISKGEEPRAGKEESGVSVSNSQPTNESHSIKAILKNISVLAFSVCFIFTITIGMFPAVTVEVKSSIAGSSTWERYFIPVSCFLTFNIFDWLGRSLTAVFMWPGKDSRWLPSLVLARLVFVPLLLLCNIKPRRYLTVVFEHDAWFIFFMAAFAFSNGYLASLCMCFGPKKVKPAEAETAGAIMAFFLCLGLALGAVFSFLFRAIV

[5] = molecular target: Sodium-dependent noradrenaline transporter (Homo sapiens, UniProt P23975)
[6] = molecular target: Sodium-dependent dopamine transporter (Homo sapiens, UniProt Q01959)
Further: assay procedure not described here.

Sequence of Sodium-dependent noradrenaline transporter (P23975 whole entry): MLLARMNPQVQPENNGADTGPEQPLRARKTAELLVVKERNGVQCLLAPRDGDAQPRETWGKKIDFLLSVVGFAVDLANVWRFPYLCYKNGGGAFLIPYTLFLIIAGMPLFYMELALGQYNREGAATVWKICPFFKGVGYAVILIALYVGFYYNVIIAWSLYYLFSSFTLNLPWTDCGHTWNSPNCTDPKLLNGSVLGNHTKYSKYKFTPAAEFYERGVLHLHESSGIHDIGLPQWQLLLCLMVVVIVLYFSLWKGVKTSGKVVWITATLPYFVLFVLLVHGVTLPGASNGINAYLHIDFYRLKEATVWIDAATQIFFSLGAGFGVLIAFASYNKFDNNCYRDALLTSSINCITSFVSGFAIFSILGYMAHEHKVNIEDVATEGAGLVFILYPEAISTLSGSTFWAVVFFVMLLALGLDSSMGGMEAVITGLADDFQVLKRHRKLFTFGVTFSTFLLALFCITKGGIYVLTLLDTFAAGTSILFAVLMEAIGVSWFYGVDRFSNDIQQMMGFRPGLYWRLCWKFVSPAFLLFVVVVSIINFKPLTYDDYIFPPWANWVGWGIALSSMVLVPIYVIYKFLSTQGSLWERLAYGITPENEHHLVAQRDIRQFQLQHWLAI
Sequence of Histamine H2 receptor (P25021 whole entry): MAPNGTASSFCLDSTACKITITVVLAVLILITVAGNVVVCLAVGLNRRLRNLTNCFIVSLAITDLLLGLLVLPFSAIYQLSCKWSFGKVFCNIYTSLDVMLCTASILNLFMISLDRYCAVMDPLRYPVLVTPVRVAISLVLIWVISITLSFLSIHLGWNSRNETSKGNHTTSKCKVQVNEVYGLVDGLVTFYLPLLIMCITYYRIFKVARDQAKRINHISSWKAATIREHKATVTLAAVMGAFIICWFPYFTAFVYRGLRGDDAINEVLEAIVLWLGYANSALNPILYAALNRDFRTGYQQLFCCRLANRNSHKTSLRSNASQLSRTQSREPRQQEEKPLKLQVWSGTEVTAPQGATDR
Sequence of Sodium-dependent dopamine transporter (Q01959 whole entry): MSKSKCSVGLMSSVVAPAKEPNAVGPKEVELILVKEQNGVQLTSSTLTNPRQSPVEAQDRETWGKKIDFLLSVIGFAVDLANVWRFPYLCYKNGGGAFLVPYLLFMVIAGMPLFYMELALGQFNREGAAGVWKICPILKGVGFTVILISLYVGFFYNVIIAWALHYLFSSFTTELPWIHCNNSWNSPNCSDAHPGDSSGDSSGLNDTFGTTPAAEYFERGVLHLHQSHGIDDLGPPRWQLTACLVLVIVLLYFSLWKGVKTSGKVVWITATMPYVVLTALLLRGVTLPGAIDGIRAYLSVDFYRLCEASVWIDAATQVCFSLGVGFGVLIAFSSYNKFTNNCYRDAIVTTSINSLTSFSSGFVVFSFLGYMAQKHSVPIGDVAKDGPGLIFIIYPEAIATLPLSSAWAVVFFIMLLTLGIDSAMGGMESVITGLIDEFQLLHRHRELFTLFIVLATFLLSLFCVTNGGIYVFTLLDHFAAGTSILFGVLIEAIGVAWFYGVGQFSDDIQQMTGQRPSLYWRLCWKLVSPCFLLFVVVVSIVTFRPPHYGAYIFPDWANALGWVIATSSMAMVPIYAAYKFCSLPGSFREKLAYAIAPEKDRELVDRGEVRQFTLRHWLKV
Sequence of Vasopressin V2 receptor (P30518 whole entry): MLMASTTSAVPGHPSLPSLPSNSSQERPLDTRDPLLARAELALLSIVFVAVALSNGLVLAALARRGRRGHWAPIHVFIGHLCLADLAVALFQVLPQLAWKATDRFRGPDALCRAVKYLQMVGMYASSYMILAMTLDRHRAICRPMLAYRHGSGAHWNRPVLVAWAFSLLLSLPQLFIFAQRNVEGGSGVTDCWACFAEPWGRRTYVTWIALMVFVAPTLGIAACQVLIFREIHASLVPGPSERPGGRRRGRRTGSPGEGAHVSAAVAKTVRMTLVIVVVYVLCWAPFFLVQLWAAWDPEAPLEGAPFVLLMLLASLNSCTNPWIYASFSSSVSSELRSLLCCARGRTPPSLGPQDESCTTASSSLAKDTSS
Sequence of Growth hormone secretagogue receptor type 1 (Q92847 whole entry): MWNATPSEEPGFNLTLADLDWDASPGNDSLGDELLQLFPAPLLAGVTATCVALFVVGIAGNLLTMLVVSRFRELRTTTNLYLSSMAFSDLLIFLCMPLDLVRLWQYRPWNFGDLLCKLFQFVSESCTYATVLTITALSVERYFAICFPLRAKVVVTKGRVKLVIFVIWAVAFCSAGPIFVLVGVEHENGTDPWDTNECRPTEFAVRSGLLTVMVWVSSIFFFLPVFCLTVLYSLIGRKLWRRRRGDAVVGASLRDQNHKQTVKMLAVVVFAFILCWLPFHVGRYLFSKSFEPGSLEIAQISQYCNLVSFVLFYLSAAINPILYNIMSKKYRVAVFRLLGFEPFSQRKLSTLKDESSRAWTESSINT
Sequence of D(3) dopamine receptor (P35462 whole entry): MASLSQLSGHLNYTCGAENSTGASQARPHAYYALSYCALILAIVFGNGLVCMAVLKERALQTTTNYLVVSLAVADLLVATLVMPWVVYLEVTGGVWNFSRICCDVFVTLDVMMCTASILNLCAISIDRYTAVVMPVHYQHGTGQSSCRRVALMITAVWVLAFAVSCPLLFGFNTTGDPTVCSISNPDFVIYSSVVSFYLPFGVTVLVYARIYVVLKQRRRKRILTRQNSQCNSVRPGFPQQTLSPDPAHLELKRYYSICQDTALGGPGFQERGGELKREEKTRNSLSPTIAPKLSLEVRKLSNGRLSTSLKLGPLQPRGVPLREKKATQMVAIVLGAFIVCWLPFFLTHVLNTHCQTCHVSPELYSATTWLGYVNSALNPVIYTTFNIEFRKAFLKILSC

Row | SMILES | AC50 (Thromboxane A2 receptor) [µM] | AC50 (Adenosine receptor A3) [µM] | AC50 (Adenosine receptor A1) [µM] | AC50 [1] [µM] | AC50 (D(3) dopamine receptor) [µM] | AC50 [2] [µM] | AC50 (Histamine H2 receptor) [µM] | AC50 (Vasopressin V2 receptor) [µM] | AC50 [3] [µM] | AC50 [4] [µM] | AC50 [5] [µM] | AC50 [6] [µM]
1 | CC(C)[C@H](N)C(=O)OCC(CO)OCn1cnc2c(=O)nc(N)[nH]c21 (stereo partly specified) [VALGANCICLOVIR] | > 30 | > 30 | > 30 | > 30 | > 30 | > 30 | > 30 | > 30 | > 30 | > 30 | > 30 | > 30
2 | [H]/N=C(/N)N/C(=N/[H])NCCc1ccccc1 [PHENFORMIN] | > 30 | > 30 | > 30 | > 30 | > 30 | > 30 | > 30 | > 30 | > 10 | > 30 | 18.3 | 25.2
3 | CCOC(=O)C1=C[C@]2(CC)CCCN3CCc4c(n1c1ccccc41)[C@@H]32 [VINPOCETINE] | > 30 | > 30 | 30 | > 30 | 23 | > 30 | > 30 | > 30 | > 30 | > 30 | > 30 | 21
4 | C#C[C@]1(OC(C)=O)CC[C@H]2[C@@H]3CCC4=C/C(=N/O)CC[C@@H]4[C@H]3CC[C@@]21CC [NORGESTIMATE] | > 30 | 11 | > 30 | > 30 | 29 | > 30 | > 30 | > 30 | > 30 | > 30 | 28 | 10
5 | CC(C(=O)O)c1ccc(-c2ccccc2)c(F)c1 (stereo unspecified) [FLURBIPROFEN] | > 10 | > 10 | > 10 | > 10 | 0.086 | > 10 | > 10 | > 10 | > 10 | > 10 | > 10 | > 10
6 | Cc1cc2cc3c(C)cc(=O)oc3c(C)c2o1 [TRIOXSALEN] | > 10 | > 30 | > 30 | > 10 | > 30 | > 10 | > 10 | > 10 | > 10 | > 10 | > 10 | > 10
7 | CCCC(CCC)C(N)=O [VALPROMIDE] | > 30 | > 30 | > 30 | > 30 | > 30 | > 30 | > 10 | > 30 | > 10 | > 30 | > 30 | > 30
8 | CCOC(=O)C1=C(C)NC(C)=C(C(=O)OC)C1c1cccc([N+](=O)[O-])c1 (stereo unspecified) [NITRENDIPINE] | > 30 | > 30 | > 30 | > 30 | > 30 | > 30 | > 10 | > 30 | > 10 | 15.9 | > 30 | 32.2
